Measurements reported in PubChem BioAssay AID1259407 (Chemical Carcinogenesis Research Information System (CCRIS), 2018).
“Also recorded” adds a separate entry of the source. The source made the active and inactive calls. No rule for the calls is given here.

Test system: CCRIS mutagenicity, Ames/micronucleus/aberration tests
Assay: CCRIS mutagenicity studies
[1] = Test System: AMES SALMONELLA TYPHIMURIUM, Strain/Indicator: TA97, Metabolic Activation: HAMSTER, LIVER, S-9, AROCLOR 1254 (30%), Method: PREINCUBATION
[2] = Test System: AMES SALMONELLA TYPHIMURIUM, Strain/Indicator: TA97, Metabolic Activation: NONE, Method: PREINCUBATION
[3] = Test System: AMES SALMONELLA TYPHIMURIUM, Strain/Indicator: TA97, Metabolic Activation: RAT, LIVER, S-9, AROCLOR 1254 (30%), Method: PREINCUBATION
[4] = Test System: AMES SALMONELLA TYPHIMURIUM, Strain/Indicator: TA98, Metabolic Activation: HAMSTER, LIVER, S-9, AROCLOR 1254 (10%), Method: PREINCUBATION
[5] = Test System: AMES SALMONELLA TYPHIMURIUM, Strain/Indicator: TA98, Metabolic Activation: HAMSTER, LIVER, S-9, AROCLOR 1254 (30%), Method: PREINCUBATION
[6] = Test System: AMES SALMONELLA TYPHIMURIUM, Strain/Indicator: TA98, Metabolic Activation: NONE, Method: PREINCUBATION
[7] = Test System: AMES SALMONELLA TYPHIMURIUM, Strain/Indicator: TA98, Metabolic Activation: RAT, LIVER, S-9, AROCLOR 1254 (10%), Method: PREINCUBATION
[8] = Test System: AMES SALMONELLA TYPHIMURIUM, Strain/Indicator: TA98, Metabolic Activation: RAT, LIVER, S-9, AROCLOR 1254 (30%), Method: PREINCUBATION
[9] = Test System: AMES SALMONELLA TYPHIMURIUM, Strain/Indicator: TA100, Metabolic Activation: HAMSTER, LIVER, S-9, AROCLOR 1254 (10%), Method: PREINCUBATION
[10] = Test System: AMES SALMONELLA TYPHIMURIUM, Strain/Indicator: TA100, Metabolic Activation: HAMSTER, LIVER, S-9, AROCLOR 1254 (30%), Method: PREINCUBATION
[11] = Test System: AMES SALMONELLA TYPHIMURIUM, Strain/Indicator: TA100, Metabolic Activation: NONE, Method: PREINCUBATION
[12] = Test System: AMES SALMONELLA TYPHIMURIUM, Strain/Indicator: TA100, Metabolic Activation: RAT, LIVER, S-9, AROCLOR 1254 (10%), Method: PREINCUBATION
[13] = Test System: AMES SALMONELLA TYPHIMURIUM, Strain/Indicator: TA100, Metabolic Activation: RAT, LIVER, S-9, AROCLOR 1254 (30%), Method: PREINCUBATION
[14] = Test System: AMES SALMONELLA TYPHIMURIUM, Strain/Indicator: TA1535, Metabolic Activation: HAMSTER, LIVER, S-9, AROCLOR 1254 (10%), Method: PREINCUBATION
[15] = Test System: AMES SALMONELLA TYPHIMURIUM, Strain/Indicator: TA1535, Metabolic Activation: HAMSTER, LIVER, S-9, AROCLOR 1254 (30%), Method: PREINCUBATION
[16] = Test System: AMES SALMONELLA TYPHIMURIUM, Strain/Indicator: TA1535, Metabolic Activation: NONE, Method: PREINCUBATION
[17] = Test System: AMES SALMONELLA TYPHIMURIUM, Strain/Indicator: TA1535, Metabolic Activation: RAT, LIVER, S-9, AROCLOR 1254 (10%), Method: PREINCUBATION
[18] = Test System: AMES SALMONELLA TYPHIMURIUM, Strain/Indicator: TA1535, Metabolic Activation: RAT, LIVER, S-9, AROCLOR 1254 (30%), Method: PREINCUBATION
[19] = Test System: AMES SALMONELLA TYPHIMURIUM, Strain/Indicator: TA1537, Metabolic Activation: HAMSTER, LIVER, S-9, AROCLOR 1254 (30%), Method: PREINCUBATION
[20] = Test System: AMES SALMONELLA TYPHIMURIUM, Strain/Indicator: TA1537, Metabolic Activation: NONE, Method: PREINCUBATION
[21] = Test System: AMES SALMONELLA TYPHIMURIUM, Strain/Indicator: TA1537, Metabolic Activation: RAT, LIVER, S-9, AROCLOR 1254 (30%), Method: PREINCUBATION
[22] = Test System: AMES SALMONELLA TYPHIMURIUM, Strain/Indicator: TA98, Metabolic Activation: NONE, Method: STANDARD PLATE
[23] = Test System: AMES SALMONELLA TYPHIMURIUM, Strain/Indicator: TA100, Metabolic Activation: NONE, Method: STANDARD PLATE

Compound: CCCCOCCOCCSC#N
- mutagenic call (Test System: AMES SALMONELLA TYPHIMURIUM, Strain/Indicator: TA97, Metabolic Activation: HAMSTER, LIVER, S-9, AROCLOR 1254 (10%), Method: PREINCUBATION): inactive; negative
- mutagenic call [1]: inactive; negative
- mutagenic call [2]: inactive; negative
- mutagenic call (Test System: AMES SALMONELLA TYPHIMURIUM, Strain/Indicator: TA97, Metabolic Activation: RAT, LIVER, S-9, AROCLOR 1254 (10%), Method: PREINCUBATION): inactive; negative
- mutagenic call [3]: inactive; negative
- mutagenic call [4]: inactive; negative
- mutagenic call [5]: inactive; negative
- mutagenic call [6]: inactive; negative
- mutagenic call [7]: inactive; negative
- mutagenic call [8]: inactive; negative
- mutagenic call [9]: inactive; negative
- mutagenic call [10]: inactive; negative
- mutagenic call [11]: inactive; negative
- mutagenic call [12]: inactive; negative
- mutagenic call [13]: inactive; negative
- mutagenic call [14]: inactive; negative
- mutagenic call [15]: inactive; negative
- mutagenic call [16]: inactive; negative
- mutagenic call [17]: inactive; negative
- mutagenic call [18]: inactive; negative
- mutagenic call [19]: inactive; negative
- mutagenic call [20]: inactive; negative
- mutagenic call [21]: inactive; negative

Compound: CC1(C)S[C@@H]2[C@H](NC(=O)Cc3ccccc3)C(=O)N2[C@H]1C(=O)O
- mutagenic call [22]: inactive; negative
- mutagenic call [23]: inactive; negative
- mutagenic call (Test System: AMES SALMONELLA TYPHIMURIUM, Strain/Indicator: TA1537, Metabolic Activation: NONE, Method: STANDARD PLATE): inactive; negative
- mutagenic call (Test System: E. COLI, Strain/Indicator: WP2 (HCR), Metabolic Activation: NONE, Method: STANDARD PLATE): inactive; negative

Compound: COC[CH2][Hg][Cl]
- mutagenic call [1]: inactive; negative
- mutagenic call [2]: inactive; negative
- mutagenic call [3]: inactive; negative
- mutagenic call [4]: inactive; negative
- mutagenic call [5]: inactive; negative
- mutagenic call [6]: inactive; negative
- mutagenic call [7]: inactive; negative
- mutagenic call [8]: inactive; negative
- mutagenic call [9]: inactive; negative
- mutagenic call [10]: inactive; negative
- mutagenic call [11]: inactive; negative
- mutagenic call [12]: inactive; negative
- mutagenic call [13]: inactive; negative
- mutagenic call [14]: inactive; negative
- mutagenic call [15]: inactive; negative
- mutagenic call [16]: inactive; negative
- mutagenic call [17]: inactive; negative
- mutagenic call [18]: inactive; negative
- mutagenic call [19]: inactive; negative
- mutagenic call [20]: inactive; negative
- mutagenic call [21]: inactive; negative

Compound: CNC(C)Cc1ccc2c(c1)OCO2 (centres undefined)
- mutagenic call (End Point: In vitro micronucleus, Test System: Chinese hamster lung fibroblast, Metabolic Activation: Hamster, Liver, S-9, Phenobarbital sodium and 5,6-benzoflavone): inactive; negative. n-nitroso-3,4-methylenedioxymethamphetamine (500-900 ug/ml), expected
- mutagenic call (End Point: In vitro micronucleus, Test System: Chinese hamster lung fibroblast, Metabolic Activation: None): inactive; negative. n-nitroso-3,4-methylenedioxymethamphetamine (200-600 ug/ml), expected; also recorded: inactive; negative. n-nitroso-3,4-methylenedioxymethamphetamine (50-300 ug/ml), expected t
- mutagenic call (End Point: In vitro micronucleus, Test System: Chinese hamster lung fibroblast, Metabolic Activation: Rat, Liver, S-9, Phenobarbital sodium and 5,6-benzoflavone): inactive; negative. n-nitroso-3,4-methylenedioxymethamphetamine (500-900 ug/ml), expected

Compound: CC(=O)c1ccccc1[N+](=O)[O-]
- mutagenic call [4]: inactive; negative
- mutagenic call [6]: inactive; negative
- mutagenic call [7]: inactive; negative
- mutagenic call (Test System: AMES SALMONELLA TYPHIMURIUM, Strain/Indicator: TA98, Method: PREINCUBATION): inactive; negative
- mutagenic call [9]: inactive; negative
- mutagenic call [11]: inactive; negative
- mutagenic call [12]: inactive; negative
- mutagenic call (Test System: AMES SALMONELLA TYPHIMURIUM, Strain/Indicator: TA100, Method: PREINCUBATION): inactive; negative
- mutagenic call [14]: inactive; negative
- mutagenic call [16]: inactive; negative
- mutagenic call [17]: inactive; negative
- mutagenic call (Test System: AMES SALMONELLA TYPHIMURIUM, Strain/Indicator: TA1535, Method: PREINCUBATION): inactive; negative
- mutagenic call (Test System: AMES SALMONELLA TYPHIMURIUM, Strain/Indicator: TA1537, Metabolic Activation: HAMSTER, LIVER, S-9, AROCLOR 1254 (10%), Method: PREINCUBATION): inactive; negative
- mutagenic call [20]: inactive; negative
- mutagenic call (Test System: AMES SALMONELLA TYPHIMURIUM, Strain/Indicator: TA1537, Metabolic Activation: RAT, LIVER, S-9, AROCLOR 1254 (10%), Method: PREINCUBATION): inactive; negative
- mutagenic call (Test System: AMES SALMONELLA TYPHIMURIUM, Strain/Indicator: TA1537, Method: PREINCUBATION): inactive; negative
- mutagenic call (Test System: AMES SALMONELLA TYPHIMURIUM, Strain/Indicator: TA1538, Metabolic Activation: NONE, Method: PREINCUBATION): inactive; negative
- mutagenic call (Test System: AMES SALMONELLA TYPHIMURIUM, Strain/Indicator: TA1538, Method: PREINCUBATION): inactive; negative

Compound: Nc1ncc2[nH]cnc2n1
- mutagenic call [22]: inactive; negative
- mutagenic call [23]: inactive; negative
- mutagenic call (Test System: CHINESE HAMSTER V-79, Strain/Indicator: V-79 (HGPRT)/6-THIOGUANINE, Metabolic Activation: NONE, Method: STANDARD PLATE): active; positive
- mutagenic call (Test System: E. COLI, Strain/Indicator: WP2, Metabolic Activation: NONE, Method: STANDARD PLATE): active; positive
- mutagenic call (Test System: E. COLI, Strain/Indicator: WP2 UVRA, Metabolic Activation: NONE, Method: STANDARD PLATE): active; positive
- mutagenic call (Test System: MOUSE LYMPHOMA, Strain/Indicator: L5178Y (TK+/TK-), Metabolic Activation: NONE, Method: SUSPENSION/PLATE): active; positive

Compound: NNc1nncc2cnccc12
- mutagenic call [6]: active; positive
- mutagenic call (Test System: AMES SALMONELLA TYPHIMURIUM, Strain/Indicator: TA98, Metabolic Activation: RAT, LIVER, S-9, PCB, Method: PREINCUBATION): active; positive
- mutagenic call [11]: active; positive
- mutagenic call (Test System: AMES SALMONELLA TYPHIMURIUM, Strain/Indicator: TA100, Metabolic Activation: RAT, LIVER, S-9, PCB, Method: PREINCUBATION): active; positive
